Data set [1] in a line: Solubility Assay - PBS. Type of data set: physicochemical. To be noted: for solubility in phosphate buffered saline / Solubility (μM) in PBS 7.4: PBS pH 7.4; for Solubility (μM) in PBS 7.4 / Solubility (μM) in T-S 7.5: λ 280 nm; for Solubility (μM) in T-S 7.5: Teorell-Stenhagen buffer pH 7.5.
A short description of data set [2]: Chemical Stability Assay - Teorell-Stenhagen Buffer. Type of data set: physicochemical. To be noted: for Teorell-Stenhagen Buffer pH 3.5 t1/2 / Teorell-Stenhagen Buffer pH 4.5 t1/2 / Teorell-Stenhagen Buffer pH 5.5 t1/2 / Teorell-Stenhagen Buffer pH 6.5 t1/2 / Teorell-Stenhagen Buffer pH 7.5 t1/2 / Teorell-Stenhagen Buffer pH 8.5 t1/2: 10 μM, 0.5% DMSO, 20° C. On the procedure:
(§1) CBD methyl ether and CBD difluoromethyl ether were synthesized using a synthetic protocol described above and the identities of the desired ether products were confirmed by nuclear magnetic resonance spectroscopy as well as HPLC-MS. CBD methyl and/or CBD difluoromethyl ethers were incubated in individual eppendorf tubes in the following mediums: (a) simulated gastric fluid (SGF) with and without pepsin; (b) microsomal extract; (c) S9 fraction (hepatic); (d) Plasma; (e) Teorell-Stenhagen Buffer at pH 3.5, 4.5, 5.5, 6.5, 7.5, and 8.5; and (f) simulated intestinal fluid (SIF) with and without pancreatin. Each incubation mixture contained up to 0.5% of an organic solvent. DMSO is the organic solvent when SGF and Teorell-Stenhagen Buffer was used and acetonitrile is the organic solvent for incubation mixtures in microsomal extract, S9 fraction, and plasma. The concentration of CBD methyl and/or CBD difluoromethyl ether is 10 μM for stability studies in SGF and Teorell-Stenhagen Buffer. However, the concentration of CBD methyl and/or CBD difluoromethyl ether is 1 μM for stability studies in microsomal extract, S9 fraction, and plasma.
[…] Aliquots were taken at fixed intervals of time, typically at 0, 5, 10, 15, 30, and 45 minutes, or at fixed intervals of 1 h, 1.5 h, 2 h, 4 h, 6 h, 8 h, 24 h, and 48 hours. At each interval of time, two aliquots of each sample were collected. Each aliquot was extracted with ethyl acetate. The ethyl acetate layer was evaporated using a stream of nitrogen gas and the resulting residue was dissolved in 1:1 mixture of 0.1% aqueous HOAc and acetonitrile and analyzed by reverse-phase HPLC-MS.

Data set [3] can be described thus: Stability in simulated gastric fluid (SGF) with and without pepsin and simulated intestinal fluid (SIF) with and without pancreatin. To be noted: for SGF t1/2: SGF with pepsin; for SGF t1/2 / SGF No Pepsin t1/2: pH 1.2; for SGF t1/2 / SGF No Pepsin t1/2 / SIF t1/2 / SIF No Pancreatin t1/2: 10 μM, 0.5% DMSO, 37° C.; for SGF No Pepsin t1/2: SGF without pepsin; for SIF t1/2: SIF with pancreatin; for SIF t1/2 / SIF No Pancreatin t1/2: pH 6.8; for SIF No Pancreatin t1/2: SIF without pancreatin.

Data set [4] can be described thus: S9 Intrinsic Clearance Assay. Type of data set: in vitro ADME, Human. On the procedure: as §1
(§2) Stability studies were performed by incubating CBD methyl ether and/or CBD difluoromethyl ether at 37 ° C. in the desired medium. Aliquots were taken at fixed intervals of time, typically at 0, 5, 10, 15, 30, and 45 minutes, or at fixed intervals of 1 h, 1.5 h, 2 h, 4 h, 6 h, 8 h, 24 h, and 48 hours. At each interval of time, two aliquots of each sample were collected. Each aliquot was extracted with ethyl acetate. The ethyl acetate layer was evaporated using a stream of nitrogen gas and the resulting residue was dissolved in 1:1 mixture of 0.1% aqueous HOAc and acetonitrile and analyzed by reverse-phase HPLC-MS.
The stability of CBD methyl ether and CBD difluoromethyl ether in the hepatic S9 fraction is illustrated in Table 3. Both the methyl and difluoromethyl ethers were reasonably stable in S9 fraction with half-lives for de-etherification being about 5 hours for the methyl ether and about 3 hours for the difluoromethyl ether.
Intrinsic clearance (CLint) is clearance of drug by the livers if the drug is not bound to serum proteins or dependent on blood flow for delivery to the livers. Intrinsic clearance (CLint) is influenced by the affinity of the drug for its metabolizing liver enzyme and the number of enzymes present. CLint is subject to saturation and governed by Michaelis-menten (non-linear) elimination kinetics. Intrinsic clearance can be constant at low concentration, but progressively decreases as enzyme sites become saturated. Drugs with a strong affinity for their metabolizing enzymes or for which there are a large number of enzymes would be more efficiently extracted by the liver and thus, have a high extraction ratio (EH).
The hepatic extraction ratio EH is a good measure of expected first-pass metabolic clearance from liver (typical first pass after oral administration). The hepatic extraction ratio (Eh) is represented as follows:
Hepatic clearance (CLH) is the volume of blood that is cleared of drug per unit time by the liver, and QH is the rate of blood flow to the liver.
The hepatic extraction ratio EH is particularly useful for separating compounds into low/medium/high metabolic stability categories. Unlike in vitro intrinsic microsomal clearance (CLint), EH is species-nonspecific, because in its calculation species differences like liver weight, body weight, liver blood flow, etc. are normalized out, so EH values can be directly compared across species.

The nature of data set [5]: Plasma Stability Assay. The format is in vitro ADME. To be noted: 1 μM, 37 ° C. As to the method: as §1, with “The concentration of CBD methyl and/or CBD difluoromethyl ether is 10 μM for stability studies in SGF and Teorell-Stenhagen Buffer. However, the concentration of CBD methyl and/or CBD difluoromethyl ether is 1 μM for stability studies in microsomal extract, S9 fraction, and plasma.” left out
Stability studies were performed by incubating CBD methyl ether and/or CBD difluoromethyl ether at 37 ° C. in the desired medium. […] The ethyl acetate layer was evaporated using a stream of nitrogen gas and the resulting residue was dissolved in 1:1 mixture of 0.1% aqueous HOAc and acetonitrile and analyzed by reverse-phase HPLC-MS.
The methyl and difluoromethyl ethers of CBD were stable to degradation in plasma. The half-life of degradation as measured by LC-MS for both ethers was greater than 400 minutes.

Data set [6] in a line: Microsomal Intrinsic Clearance Assay. The format is in vitro ADME, Human. As to the method:
as §1, §2
In vitro intrinsic microsomal clearance studies were performed to understand the metabolic fate of CBD ethers, as well as to identify metabolites produced by the degradation of the inventive CBD ethers.
The liver is the most important site of drug metabolism in the body. Approximately 60% of marketed compounds are cleared by hepatic CYP-mediated metabolism. See Drug Aletab. Dispos., 27(11) (1999) 1350. Liver microsomes are a subcellular fraction of hepatocytes, and they contain membrane bound drug metabolizing enzymes, Microsomes can be used to determine the in vitro intrinsic clearance of a compound. The use of species-specific microsomes can be used to enable an understanding of interspecies differences in drug metabolism.

The conditions of data set [7]: pediatric epilepsy patients receiving CBD orally; cited from earlier work.
The mark [8] stands for this setting: 1 μM, protein 1.25 mg/mL, pH 7.4, 37° C.
The mark [9] stands for this setting: 1 μM, protein 1.25 mg/mL, pH 7.4, 37° C, NADPH, UDPGA, PAPS.
[10] abbreviates: 1 μM, microsomal protein 1 mg/mL, pH 7.4, 37° C.

Converted amounts (≈) assume the structure as drawn.

On to `C=C(C)[C@@H]1CCC(C)=C[C@H]1c1c(O)cc(CCCCC)cc1OC` [CBD Methyl Ether, CBD methyl ether], for which, in data set [1], the “solubility in phosphate buffered saline” value was “good solubility”, the “Solubility (μM) in PBS 7.4” value came out at 8.4 µM (≈ 2.76 µg/mL) and the “Solubility (μM) in T-S 7.5” value was determined as 22 µM (≈ 7.23 µg/mL). Also, the “half-life of de-etherification in buffers at different pH's” value in data set [2] (Teorell-Stenhagen buffer pH 3.5-8.5) is “greater than 72 hours”. Besides, in data set [2], the “Teorell-Stenhagen Buffer pH 3.5 t1/2” value is on record as over 72 h, the “Teorell-Stenhagen Buffer pH 4.5 t1/2” value is over 72 h, the “Teorell-Stenhagen Buffer pH 5.5 t1/2” value is over 72 h and the “Teorell-Stenhagen Buffer pH 6.5 t1/2” value is over 72 h. Besides, in data set [2], the “Teorell-Stenhagen Buffer pH 7.5 t1/2” value was over 72 h and the “Teorell-Stenhagen Buffer pH 8.5 t1/2” value is over 72 h. In addition, in data set [3], the “SGF t1/2” value is over 6.67 h, the “SGF No Pepsin t1/2” value is over 6.67 h, the “SIF t1/2” value is over 6.67 h and the “SIF No Pancreatin t1/2” value was over 6.67 h. Further, the “Human S9 EH (hepatic extraction ratio)” value in data set [4] (setting [8]) came out at 21%. For the same compound, in data set [4] (setting [9]), the “Human S9 CLint” value stood at 1.9 µL/min/mg and the “Human S9 t1/2” value worked out at 4.77 h. Further, the “half-life for de-etherification in S9 fraction” value in data set [4] (hepatic S9 fraction) is reported as “about 5 hours”. For the same compound, the “Plasma stability Human t1/2” value in data set [5] is over 6.67 h. In addition, in data set [6] (setting [10]), the “HLM CLint” value was 8.7 µL/min/mg, the “HLM EH (hepatic extraction ratio)” value was 26% and the “HLM t1/2” value was 1.33 h. Moreover, the “stability in liver microsome extract” value in data set [6] is “relatively stable”.
In the case of `C=C(C)[C@@H]1CCC(C)=C[C@H]1c1c(O)cc(CCCCC)cc1O` [CBD, cannabidiol, reference compound], the “CBD cyclized to mixture of Δ8-THC and Δ9-THC” value in data set [3] (in about 60 minutes, comparison in the SGF/SIF stability study) was “greater than 85%”. Moreover, the patients showing somnolence result in data set [7] is “greater than 44%”.
In the case of `C[C@]12CC[C@H]3[C@@H](CCC4=CC(=O)CC[C@@]43C)[C@@H]1CC[C@@H]2O` [Testosterone, testosterone, reference compound], the “Human S9 EH (hepatic extraction ratio)” value in data set [4] (setting [8]) was 87%. In addition, the microsomal CLint at 1 μM in data set [4] (human, hepatic S9 fraction, 1 μM, protein 1.25 mg/mL, pH 7.4, 37° C, NADPH, UDPGA, PAPS) is 47 µL/min/mg; in data set [6] (human, liver microsomes, 1 μM, microsomal protein 1 mg/mL, pH 7.4, 37° C., read-out: HLM CLint), 69 µL/min/mg. Moreover, the half-life at 1 μM in data set [4] (human, hepatic S9 fraction, 1 μM, protein 1.25 mg/mL, pH 7.4, 37° C, NADPH, UDPGA, PAPS, read-out: Human S9 t1/2) was found to be 0.483 h; in data set [6] (human, liver microsomes, 1 μM, microsomal protein 1 mg/mL, pH 7.4, 37° C., read-out: HLM t1/2) it was 0.167 h. For the same compound, the half-life in data set [4] (human, hepatic S9 fraction, read-out: half-life of degradation in S9 fraction) was about 0.483 h. Also, the “HLM EH (hepatic extraction ratio)” value in data set [6] (setting [10]) was 73%.
As to CBD difluoromethyl ether, in data set [1], the “solubility in phosphate buffered saline” value is on record as “good solubility”, the “Solubility (μM) in PBS 7.4” value came to 7.0 µM and the “Solubility (μM) in T-S 7.5” value came to 9.7 µM. Further, in data set [2], the “Teorell-Stenhagen Buffer pH 3.5 t1/2” value was found to be 10 h, the “Teorell-Stenhagen Buffer pH 4.5 t1/2” value is listed as 14 h, the “Teorell-Stenhagen Buffer pH 5.5 t1/2” value is on record as 11 h and the “Teorell-Stenhagen Buffer pH 6.5 t1/2” value was found to be 11 h. In addition, in data set [2], the “Teorell-Stenhagen Buffer pH 7.5 t1/2” value came out at 11 h and the “Teorell-Stenhagen Buffer pH 8.5 t1/2” value came to 8 h. Besides, in data set [3], the “SGF t1/2” value was over 6.67 h, the “SGF No Pepsin t1/2” value is over 6.67 h, the “SIF t1/2” value is over 6.67 h and the “SIF No Pancreatin t1/2” value was over 6.67 h. The “Human S9 EH (hepatic extraction ratio)” value in data set [4] (setting [8]) is listed as 31%. Besides, in data set [4] (setting [9]), the “Human S9 CLint” value worked out at 3.2 µL/min/mg and the “Human S9 t1/2” value was found to be 2.88 h. For the same compound, the “half-life for de-etherification in S9 fraction” value in data set [4] (hepatic S9 fraction) is on record as “about 3 hours”. Besides, in data set [5], the “Plasma stability Human t1/2” value was over 6.67 h. In data set [6] (setting [10]), the “HLM CLint” value is 9.0 µL/min/mg, the “HLM EH (hepatic extraction ratio)” value is on record as 26% and the “HLM t1/2” value came out at 1.28 h. Further, the “stability in liver microsome extract” value in data set [6] is “relatively stable”.

Values taken from patent US20190345087A1, “BIO-STABLE C[…] AND METHODS FOR ENHANCING THEIR PHYSIOLOGICAL CONCENTRATION” (Teewinot Technologies Limited, priority 2016, published 2019).
